Patent US10993926B2, “Use of IDHP in preparation of drug or health product for prevention and treatment of coronary atherosclerosis disease” (NORTHWEST UNIVERSITY, priority 2016, dated 2021)
Where two headings read alike, the source gives them in different places.

Columns and labels:
[1] = tested on: human umbilical vein endothelial cells (HUVEC); test: Proliferation of human umbilical vein endothelial cells, CCK-8 method; type: cell-based; details: 10^−9 to 10^−7 M, 48 hours, compared with blank control, P<0.01, FIG. 1
Method: 1.1 Detect Proliferation of Human Umbilical Vein Endothelial Cells Promoted by IDHP—CCK-8 Method
Human umbilical vein endothelial cells were seeded in a 96-well plate at a density of approximately 2,500 cells per well. After the cells were culture for 24 hours, the medium was changed for a fresh medium containing drug, 100 μl/well, and the cells were continued culturing for 48 hours. 2 hours before the end of drug treatment, CCK-8 reagent was added to the culture medium in the dark, 10 μl per well. The culture was continued for 2 hours, and then the absorbance at 450 nm was determined with a microplate reader to calculate the cell proliferation rate.

[2] = tested on: human umbilical vein endothelial cells (HUVEC); test: Migration of HUVEC, scratch method; type: cell-based; details: 10^−10 to 10^−7 M, 16 hours, FIG. 2
Method: 1.2 Detect Migration of Human Umbilical Vein Endothelial Cells (HUVEC) Promoted by IDHP—Scratch Method
Endothelial cells were seeded on a cover slip pre-coated with gelatin in a 24-well plate at a density of about 10^5 cells per well. After the cells attached to the cover slip and reached confluence, cells were starved in a medium without serum for 4 hours. A home-made tool was used to make scratch on the cover slip with cells. The cover slip was washed twice with PBS, and a medium containing drug was added, 600 μl/well. Control group was immediately fixed with ice-cold methanol at zero time point; rest of the cells were cultured for 16 hours, and then fixed with ice-cold methanol. Images were acquired under a microscope and subjected to statistics analysis.

[3] = tested on: primary human umbilical vein endothelial cells (HUVEC); test: Tube formation of HUVEC, Matrigel gel method; type: cell-based; details: 8 hours on Matrigel, compared with Ctrl control group
Method: 1.3 Detect Tube Formation of Human Umbilical Vein Endothelial Cells (HUVEC) Promoted by IDHP—Matrigel Gel Method
Pipette tips and 96-well plate were pre-cooled at −20° C. Matrigel gel was placed on ice and melted, and then added to the pre-cooled 96-well plate (60 μl/well). Avoid the formation of air bubbles. The plate was placed on ice for 5 minutes to level the Matrigel gel, and then put into a cell culture incubator for 30 minutes to solidify. Endothelial cells were added to the wells (5×10^4 cells/well) containing Matrigel gel, and fresh medium containing different concentrations of the drug was added, incubated at 37° C. for 8 hours. The plate was observed under a microscope, 5 fields of view were chosen at 0, 3, 6, 9 o'clock positions and the center of each well, the number of tubules and the integrity of the tubular structure were observed and images were acquired.

[4] = tested on: zebrafish intersegmental vessels; test: Angiogenesis in transgenic Tg (VEGFR2:GFP) zebrafish (intersegmental vessels); type: in vivo; details: for Length of Blood Vessels / Number of Blood Vessels: zebrafish ISV
Method: The transgenic Tg (VEGFR2:GFP) zebrafishes were cultured under the standard conditions of illumination for 14 hours/dark for 10 hours at 28° C. Healthy and mature zebrafishes were put into a breeding container at a ratio of female to male 1/1 or 1/2 for mating. The fertilized eggs were obtained at 9 to 10 o'clock the next day. The fertilized eggs were sterilized and washed, then transferred to zebrafish embryo culture medium and cultured at 28° C.
Drug solution was added to a 24-well culture plate, and 24 hpf embryos were carefully transferred to wells, 8-10 per well, and culture medium was added until a total volume of 2 ml to make sure that the final concentration of DMSO in the medium was not higher than 1%. After 24-hour drug treatment, the embryos were observed under a fluorescence microscope, and the total number of intersegmental vessels in trunk and tail were counted, and the relative generation rate of ISV in each administration group was calculated. Analysis of variance between groups was performed using SPSS software.

[5] = tested on: human platelet aggregation induced by ADP; test: ADP-induced normal human platelet aggregation, turbidimetry; type: cell-based; details: human PRP, ADP 3 μmol/L, compared with ADP alone (Ctrl), FIG. 6
Method: (§1) The whole blood samples of healthy volunteers were collected into the anticoagulant tubes and centrifuged at 800 g for 5 minutes at room temperature. The light yellow supernatant was the platelet-rich plasma (PRP); the remaining solution was further centrifuged at 4000 g for 10 minutes at room temperature, and the supernatant obtained was platelet-poor plasma (PPP).
(§2) PRP was adjusted to 3×10^5 platelets/μl with PPP, 300 μl of adjusted PRP was added to 30 μl of PBS or different concentrations of IDHP and incubated at 37° C. for 3 minutes in a blood coagulation apparatus. Collagen or ADP at a final concentration of 3 μmol/L was added to initiate the aggregation reaction of platelets. The inhibitory effect of IDHP and clopidogrel on platelet aggregation was determined by turbidimetry.

[6] = tested on: human platelet aggregation induced by collagen; test: Collagen-induced normal human platelet aggregation, turbidimetry; type: cell-based; details: human PRP, collagen 3 μmol/L, compared with collagen alone (Ctrl), P<0.001, FIG. 6
Method: as §1, §2

[7] = Acute toxicity test in mice with rapid administration (IV); type: in vivo; details: both sexes, mouse, in vivo, iv, mice, IV, administration completed within 5 seconds
Method: (§3) 4.1 Acute Toxicity Test in Mice with Rapid Administration
(§4) Sixty mice were used, half male and half female, and randomly divided into 6 groups. […] The spacing between the concentrations was 1:0.9. After the animals were fasted for 12 hours, each group was subjected to IV administration, the volume was 20 ml/kg, and the administration was completed within 5 seconds for each animal.

mice [8] = test: as above; type: in vivo
Method: as §3, §4

[9] = Acute toxicity test in mice with slow administration (tail vein); type: in vivo; details: both sexes, mouse, in vivo, intravenous, mice, tail vein, administration completed within 10 minutes, 14 days observation
Method: (§5) 4.2 Acute Toxicity Test in Mice with Slow Administration
(§6) After housing in the laboratory for 1 day, the test mice with qualified body weight were selected and randomly divided into groups according to body weight and sex, 10 for each group, half male and half female. According to the result of premeasurement, the absolute lethal dose was 2.4 g/kg. The mice were subjected to tail vein administration, the dose for the mice was calculated according to body weight. The doses were 2.4 g/kg, 2.2 g/kg, 2.0 g/kg, and 1.8 g/kg, respectively, and the drug delivery rate was calculated. The administration was completed within 10 minutes. The reactions of the mice were observed after the administration and the death of the mice was recorded within 14 days.
(§7) The main toxic reactions after intravenous administration were central inhibition, respiratory failure, etc. Most of the death occurred during the administration period. […] After 14 days of observation, the mortality rate of the mice was calculated.

mice [10] = test: as above; type: in vivo
Method: as §5, §6, §7

red blood cells = test: Hemolysis assay; type: cell-based, domestic rabbit; details: rabbit 2% red blood cells, IDHP groups 2 to 10 (10^−3 mol/l), 37±0.5° C., 0.5 h to 3 h
Method: Arterial blood from domestic rabbit was collected, fibrin was removed, red blood cells were washed with physiological saline and then formulated into a 2% red blood cell physiological saline solution. The test was operated according to Table 4, four parallel test tubes in each group.
After the above operation, the tubes were put in water bath at 37±0.5° C., one tube from each group was taken at 0.5 h, 1 h, 2 h and 3 h respectively, centrifuged at 3000 rpm for 15 minutes. Red blood cell hemolysis was observed, at the same time, the morphology of red blood cells was observed under light microscope.

## CC(C)OC(=O)C(O)Cc1ccc(O)c(O)c1 (stereo not drawn) [IDHP, β-(3,4-dihydroxyphenyl)-α-hydroxyisopropyl propionate]
[1]
  proliferation of vascular endothelial cell: significantly promoted
[2]
  migration of human umbilical vein endothelial cells (HUVEC): could promote the migration
[3]
  tube formation of primary HUVEC: significantly promoted
[4]; 0.01, 0.1 and 1.0 μM, 24-hour treatment, FIG. 4
  growth of intersegmental vessels and posterior longitudinal blood vessels in zebrafish: significantly promoted
[4]; calculated from total vessel length vs PTK787 control and normal control, FIG. 5
  relative generation rate of ISV: dose-dependent relationship
[4]; 0.01 μM
  Length of Blood Vessels: 287.4 ± 18.8 μm
  Number of Blood Vessels: 25.0 ± 8.6
[4]; 0.1 μM
  Length of Blood Vessels: 359.2 ± 58.2 μm
  Number of Blood Vessels: 26.1 ± 3.3
[4]; 1.0 μM
  Length of Blood Vessels: 447.6 ± 19.5 μm
[5]
  inhibitory effect on ADP-induced platelet aggregation: significantly inhibit
[6]
  inhibitory effect on collagen-induced platelet aggregation: more significant
[7]; read-out: LD50 95% confidence interval
  LD50: 370 to 486 mg/kg
[7]; read-out: LD50 (Bliss method, Feiller heterogeneity correction)
  LD50: 424 ± 58 mg/kg
[7]; read-out: LD50 (regression equation, without heterogeneity correction)
  LD50: 424 mg/kg
Mice [8]; both, mouse, in vivo, iv
  time until undead animals returned to normal: 10 min
Mice [8]; both, mouse, in vivo, iv, 320 mg/kg
  Mortality Rate (%): 0%
Mice [8]; both, mouse, in vivo, iv, 375 mg/kg
  Mortality Rate (%): 40%
Mice [8]; both, mouse, in vivo, iv, 400 mg/kg
  Mortality Rate (%): 40%
Mice [8]; both, mouse, in vivo, iv, 480 mg/kg
  Mortality Rate (%): 50%
Mice [8]; both, mouse, in vivo, iv, 530 mg/kg
  Mortality Rate (%): 100%
Mice [8]; both, mouse, in vivo, iv, 629 mg/kg
  Mortality Rate (%): 100%
Mice [8]; mice, rapid IV, dead animals
  time to death after the administration: ≤ 1 min
Mice [8]; mouse, in vivo, iv
  autopsy of dead mice, vital organs (heart, liver, spleen, lung, kidney, brain, stomach, intestine): no abnormality
[9]; read-out: LD50 95% confidence limit
  LD50 at 14 days: 1960 to 2140 mg/kg
[9]; read-out: LD50 (Bliss method)
  LD50 at 14 days: 2050 mg/kg
Mice [10]; mice, premeasurement
  absolute lethal dose: 2400 mg/kg
Mice [10]; mouse, in vivo
  anatomy findings: No abnormal changes
Red blood cells
  red blood cell hemolysis: no obvious hemolysis

## Clc1ccc(Nc2nnc(Cc3ccncc3)c3ccccc23)cc1 [PTK787, reference compound]
[4]; 0.1 μg/ml
  Number of Blood Vessels: 3.6 ± 1.3
[4]; 0.1
  Length of Blood Vessels: 36.4 ± 14.2 μm

## COC(=O)[C@H](c1ccccc1Cl)N1CCc2sccc2C1 [clopidogrel, reference compound]
[5]
  inhibitory effect on ADP-induced platelet aggregation: significantly inhibited

## VEGF
[4]; 10 ng/ml
  Length of Blood Vessels: 420.0 ± 54.2 μm
  Number of Blood Vessels: 29.3 ± 3.3
